Tested on: Mycobacterium tuberculosis H37Rv (ATCC: 25177)
Assay: Resazurin Microplate Assay (REMA), anti-tubercular activity, H37Rv strain
Type: cell-based
Conditions: 192 h, read-out: Anti-tubercular activity against Mycobacterium tuberculosis (MIC), H37Rv

Cc1cc[n+](CC(=O)c2ccc(F)cc2)cc1.[Br-] [Compound 3d, 1-(2-(4-Fluorophenyl)-2-oxoethyl)-4-methylpyridin-1-ium bromide]
MIC: 8 µg/mL
